# Entries after “also recorded” stand apart in the source; their conditions may differ. Read-outs that look alike come from different tables or passages of the source.
# Key:
# [1] = tested on: human trace amine receptor; type: cell-based; settings: luciferase reporter; HEK 293 cells transfected with H2-3pcDNA3.1
# HEK 293 cells = type: cell-based, human; settings: luciferase reporter; control cells transfected with pcDNA3.1
# Source text: Control cells were transfected with pcDNA3.1 without the rat trace amine receptor sequences. All cells were also co-transfected with 2 additional constructs: one (elk-gal) that encoded the yeast transcription factor gal under the transcriptional control of an Elk-responsive promoter; and another encoding firefly luciferase under the transcriptional control of a gal-responsive promoter. […]
# rat trace amine receptor = molecular target: T1, rat trace amine receptor (Rattus norvegicus, UniProt Q923Y9); assay: cell-based; type: cell-based; settings: for Emax: HEK293, percent of stimulation by p-tyramine, read-out: Maximal Stimulation (%±SEM)
# T1 construct: HEK293 cells stably transfected with the pcDNA3.1/V5/His-TOPO expression vector containing the full-length rat cDNA clone described above; expressed in transfected cells
# T1 sequence (Q923Y9 whole entry): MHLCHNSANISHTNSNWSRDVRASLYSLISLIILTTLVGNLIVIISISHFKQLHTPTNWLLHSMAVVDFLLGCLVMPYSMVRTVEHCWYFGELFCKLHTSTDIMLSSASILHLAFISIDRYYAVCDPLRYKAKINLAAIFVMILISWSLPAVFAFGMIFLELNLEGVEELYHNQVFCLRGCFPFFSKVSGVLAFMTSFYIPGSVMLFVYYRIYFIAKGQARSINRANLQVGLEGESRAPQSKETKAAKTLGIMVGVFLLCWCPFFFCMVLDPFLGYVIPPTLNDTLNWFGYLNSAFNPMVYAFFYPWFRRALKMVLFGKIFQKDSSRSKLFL
# [2] = Table III, cAMP, 1 hour at 37°C, 100 µM IBMX, read-out: EC50 (nM±SEM)
# [3] = untitled table after Table III, DRUGS, read-out: EC50
SMILES,"activation of the trace amine receptor / cAMP production, in words (rat trace amine receptor)",also measured
NC1CCc2cc(O)c(O)cc2C1 (stereo not drawn) [ADTN67],–,"fold stimulation for each potential ligand compared with cells incubated in the absence of the ligand, H2-3 pcDNA3.1 [1]: 1.93 fold; fold stimulation for each potential ligand compared with cells incubated in the absence of the ligand, pcDNA3.1 (HEK 293 cells): 0.78 fold"
"CN1CC=C(c2ccccc2)CC1 [MPTP, 1-methyl-4-phenyl-1,2,3,6-tetrahydropyridine]",stimulate camp production,Emax (rat trace amine receptor; Table III): 93 ± 7%
NCC(O)c1ccc(O)cc1 (stereo not drawn) [Octopamine],–,Emax (rat trace amine receptor; Table III): 102 ± 3%; EC50 (rat trace amine receptor; read-out: EC50 (nM±SEM)): 1300 ± 350 nM
CN1C[C@H](CNC(=O)OCc2ccccc2)C[C@@H]2c3cccc4c3c(cn4C)C[C@H]21 [metergoline],stimulate camp production,–
NCCc1c[nH]c2ccccc12 [Tryptamine],–,Emax (rat trace amine receptor; Table III): 90 ± 6%; EC50 (rat trace amine receptor; [2]): 309 ± 76 nM
"COc1cc(CC(C)N)c(OC)cc1I (stereo not drawn) [2-amino,(1-[2,5-dimethoxy-4-iodophenyl]propane]",activate the receptor,–
"NCCc1ccccc1 [Phenethylamine, β-phenethylamine]",–,Emax (rat trace amine receptor; Table III): 76 ± 16%
CCN(CC)C(=O)[C@@H]1C=C2c3cccc4[nH]cc(c34)C[C@H]2N(C)C1 [D-LSD],potently activate,–
NCCc1ccc(O)cc1 [p-tyramine],–,EC50 (rat trace amine receptor; read-out: EC50 (nM±SEM)): 69 ± 9 nM
"CNCC(O)c1ccc(O)c(OC)c1 (stereo not drawn) [metanephrine, 3-methoxy-β-4-dihydroxy-N-methyl-β-phenethylamine]",efficacious activators,–
Cc1ccc(N(CC2=NCCN2)c2cccc(O)c2)cc1 [Phentolamine],stimulate camp production,–
"COc1cc(CC(=O)O)ccc1O [homovanillic acid, 3-methoxy-4-hydroxyphenylacetic acid]",no detectible activity,–
"NCCc1c[nH]c2ccc(O)cc12 [Serotonin, 5-hydroxytryptamine]",–,"fold stimulation for each potential ligand compared with cells incubated in the absence of the ligand, pcDNA3.1 (HEK 293 cells): 1 fold; Emax (rat trace amine receptor; Table III): 47 ± 9%"
CN(C)CCCN1c2ccccc2Sc2ccc(Cl)cc21 [chlorpromazine],weak agonist,–
CCNC(C)Cc1ccccc1 (racemic) [(±)N-ethylamphetamine],substantially lower activities,–
CNC(C)Cc1ccc2c(c1)OCO2 (racemic) [MDMA],potently stimulated cAMP production,Emax (rat trace amine receptor; Table III): 65 ± 13%; EC50 (rat trace amine receptor; [2]): 1750 ± 1150 nM; EC50 (rat trace amine receptor; [3]): 179 nM
C=CCN1CCc2c(cc(O)c(O)c2Cl)C(c2ccccc2)C1 (stereo not drawn) [SKF82958],–,"fold stimulation for each potential ligand compared with cells incubated in the absence of the ligand, H2-3 pcDNA3.1 [1]: 2.52 fold"
NCCc1cccc(O)c1 [m-tyramine],–,Emax (rat trace amine receptor; Table III): 74 ± 3%

SMILES,"activation of the trace amine receptor / cAMP production, in words (rat trace amine receptor)",also measured
NCCCC(=O)O [GABA],not activated,–
NC[C@H](O)c1ccc(O)c(O)c1 [Norepinephrine],–,"fold stimulation for each potential ligand compared with cells incubated in the absence of the ligand, H2-3 pcDNA3.1 [1]: 1.69 fold; fold stimulation for each potential ligand compared with cells incubated in the absence of the ligand, pcDNA3.1 (HEK 293 cells): 1.3 fold"
"C[C@@H](CO)NC(=O)[C@@H]1C=C2c3cccc4[nH]cc(c34)C[C@H]2N(C)C1 [Ergotmetrine, ergometrine]",potently activate,–
CN1CC[C@]23c4c5ccc(O)c4O[C@H]2[C@@H](O)C=C[C@H]3[C@H]1C5 [morphine],not activated,–
C[C@@H](N)Cc1ccc(O)cc1 [R-OH amphetamine],–,EC50 (rat trace amine receptor; [3]): 11.3 nM
"CC(N)Cc1ccc(O)cc1 (stereo not drawn) [4-hydroxyamphetamine, α-methyl-p-tyramine]",most potent agonist,Emax (rat trace amine receptor; Table III): 79 ± 2%; EC50 (rat trace amine receptor; [2]): 51 ± 12 nM
CN1C[C@H](C(=O)N[C@]2(C)O[C@@]3(O)[C@@H]4CCCN4C(=O)[C@H](Cc4ccccc4)N3C2=O)C[C@@H]2c3cccc4[nH]cc(c34)C[C@H]21 [dihydroergotamine],potently activate; also recorded: stimulate camp production,–
"CC(C)C[C@H]1C(=O)N2CCC[C@H]2[C@]2(O)O[C@](NC(=O)[C@@H]3C=C4c5cccc6[nH]c(Br)c(c56)C[C@H]4N(C)C3)(C(C)C)C(=O)N12 [Bromocryptine, bromocriptine]",potently activate,–
c1ccc(CC2=NCCN2)cc1 [Tolazoline],stimulate camp production,–
CNCC(O)c1ccc(O)cc1 (stereo not drawn) [Synephrine],–,Emax (rat trace amine receptor; Table III): 90 ± 2%
CCNC(C)Cc1cccc(C(F)(F)F)c1 (racemic) [(±)fenfluramine],substantially lower activities,–
CN1Cc2c(N)cccc2C(c2ccccc2)C1 (stereo not drawn) [nomifensine],stimulate camp production,–
CN1CCCC1c1cccnc1 (stereo not drawn) [nicotine],not activated,–
CN[C@@H](C)Cc1ccccc1 [methamphetamine],potently stimulated cAMP production,–
COc1cc(CCN)ccc1O [3-methoxytyramine],efficacious activators,"activation of the trace amine receptor / cAMP production, in words (rat trace amine receptor; listed as 3-MT): potent and efficacious agonist"
"COc1cc(C(O)CN)ccc1O (stereo not drawn) [normetanephrine, 3-methoxy-β-4-dihydroxy-β-phenethlamine]",efficacious activators,–
NCCc1c[nH]cn1 [histamine],not activated,–
CN[C@H](C)Cc1ccccc1 [R-methamphetamine],–,EC50 (rat trace amine receptor; [3]): 236 nM
